Series [1] in a line: Antiprion activity against scrapie prion protein RML infected mouse ScN2a cells assessed as reduction of scrapie prion protein accumulation by immunoblot analysis. Format: cell-based.
Series [2] deals with ScN2a. As to the kind of experiment: Antiprion activity against scrapie prion protein RML infected mouse ScN2a cells assessed as drug level required for more than 99 percent reduction of scrapie prion protein by immunoblot analysis. The series is classed as cell-based. For orientation: In western blotting, separated proteins are transferred to a membrane and probed.
Series [3] in a line: Cytotoxicity against mouse ScN2a cells assessed as maximal tolerant concentration. Conditions: read-out: Activity. Format: cell-based.
Series [4] can be described thus: Selectivity index, ratio of maximal tolerant concentration for mouse ScN2a cells to EC50 for scrapie prion protein RML infected mouse ScN2a cells.
Series [5] can be described thus: Antiprion activity against scrapie prion protein RML infected mouse Ch2 cells assessed as reduction of scrapie prion protein accumulation. The series is classed as cell-based.
Series [6] can be described thus: Antiprion activity against scrapie prion protein 22L infected mouse N167 cells assessed as reduction of scrapie prion protein accumulation. Format: cell-based.
Series [7] deals with Ch2. Briefly: Antiprion activity against scrapie prion protein RML infected mouse Ch2 cells assessed as drug level required for more than 99 percent reduction of scrapie prion protein. The series is classed as cell-based.
A short description of series [8]: Antiprion activity against human prion Fukuoka-1 infected mouse F3 cells assessed as reduction of scrapie prion protein accumulation. Conditions: N2a #58 F3. The series is classed as cell-based.
Series [9] relates to N167. Briefly: Antiprion activity against scrapie prion protein 22L infected mouse N167 cells assessed as drug level required for more than 99 percent reduction of scrapie prion protein. The series is classed as cell-based.
Series [10] has as its system N2a #58 F3. Briefly: Antiprion activity against human prion Fukuoka-1 infected mouse F3 cells assessed as drug level required for more than 99 percent reduction of scrapie prion protein. Format: cell-based.

Take `CCN(CC)CCCNc1c2ccc(Cl)cc2nc2ccc(OC)cc12`: in series [1], the EC50 – broadly, the concentration giving half of the maximal effect – turned out to be 140 nM. Besides, the Activity in series [2] amounted to 0.3 µM. In [3], the MNTC was determined as 1000 nM. Further, the “Selectivity Index” value in [4] is listed as 7.
Turning to `CCN(CC)c1cccc(Nc2c3ccc(Cl)cc3nc3ccc(OC)cc23)c1`, the EC50 in [1] turned out to be 1010 nM. Moreover, the Activity in series [2] was 2.5 µM. Besides, the MNTC in series [3] worked out at 3000 nM. For the same compound, the “Selectivity Index” value in series [4] amounted to 3.
With `CCN(CC)c1ccc(Nc2c3ccc(Cl)cc3nc3ccc(OC)cc23)cc1`, in series [1], the EC50 was 480 nM. In addition, the Activity in series [2] is 1.5 µM. Further, the MNTC in series [3] stood at 2000 nM. For the same compound, the “Selectivity Index” value in series [4] is listed as 4.
On to `COc1ccc2nc3cc(Cl)ccc3c(Nc3cccc(N4CCCC4)c3)c2c1`, for which the EC50 in series [1] is 1060 nM. In addition, the MNTC in series [3] turned out to be 2000 nM. In addition, the “Selectivity Index” value in series [4] was determined as 2.
In the case of `COc1ccc2nc3cc(Cl)ccc3c(N3CCN(C)CC3)c2c1`, the EC50 in series [1] is 360 nM; in series [5], > 2000 nM. In addition, the Activity in series [2] stood at 1.8 µM. Also, in series [3], the MNTC was found to be 4000 nM. Besides, the “Selectivity Index” value in [4] stood at 11.
`COc1ccc2nc3cc(Cl)ccc3c(Nc3ccc(N4CCCCC4)cc3)c2c1`: the figures for the 50% effective concentration (EC50) in [6] and in series [1] were 4290 nM and 4240 nM, respectively. In series [2], the Activity was 7 µM. The MNTC in series [3] was 9000 nM. Moreover, in [4], the “Selectivity Index” value is given as 2.
For the compound `CCN(CC)CCCCNc1c2ccc(Cl)cc2nc2ccc(OC)cc12`, the EC50 in series [1] is 150 nM. Moreover, the Activity in [2] was 0.4 µM. Besides, in series [3], the MNTC was determined as 1000 nM. Besides, the “Selectivity Index” value in series [4] came out at 7.
For the compound `COc1ccc2nc3cc(Cl)ccc3c(Nc3cccc(N(C)C)c3)c2c1`, the EC50 in series [1] was 320 nM. The MNTC in [3] came out at 2000 nM. Moreover, in series [4], the “Selectivity Index” value was determined as 6.
Regarding `COc1ccc2nc3cc(Cl)ccc3c(NCCCN(C)C)c2c1`, the EC50 in series [1] turned out to be 110 nM. The Activity in series [2] amounted to 0.3 µM. The MNTC in series [3] came to 1000 nM. The “Selectivity Index” value in [4] is recorded as 9.
Regarding `CCN(CC)CCNc1c2ccc(Cl)cc2nc2ccc(OC)cc12`, the values for the Activity in series [7] and in series [2] were 3 µM and 0.1 µM, respectively. Moreover, the EC50 turned out to be 21 nM in series [1] and 700 nM in series [5]. Moreover, the MNTC in [3] came out at 4000 nM. The “Selectivity Index” value in series [4] was 190.
Turning to `COc1ccc2nc3cc(Cl)ccc3c(Nc3ccccc3N(C)C)c2c1`, the EC50 in [1] came out at 250 nM. Besides, in series [2], the Activity was found to be 0.8 µM. The MNTC in series [3] is 5000 nM. Besides, in series [4], the “Selectivity Index” value amounted to 20.
In the case of `Nc1c2ccccc2nc2ccccc12` [AMINACRINE], in [3], the MNTC stood at 2500 nM.
Turning to `COc1ccc2nc3cc(Cl)ccc3c(Nc3cccc(N4CCCCC4)c3)c2c1`, the EC50 in [1] was determined as 180 nM. Moreover, the Activity in series [2] was determined as 0.5 µM. Besides, the MNTC in [3] is 4000 nM. The “Selectivity Index” value in [4] worked out at 22.
For the compound `COc1ccc2nc3cc(Cl)ccc3c(NC3CCN(Cc4ccccc4)CC3)c2c1`, the EC50 in series [6] was 490 nM; in series [8] it was 800 nM; in [1], 420 nM; in series [5], 410 nM. Also, the values for the Activity in [7], in series [2] and in [9] were 1 µM, 1 µM and 1.5 µM, respectively. For the same compound, the MNTC in series [3] worked out at 2000 nM. Moreover, in [4], the “Selectivity Index” value was 5.
Consider `CCN(CC)CCCC(C)Nc1c2ccc(Cl)cc2nc2ccc(OC)cc12` (stereo not given) [QUINACRINE], for which the EC50 was 590 nM in [6], 1880 nM in series [8], 230 nM in [1] and 460 nM in [5]. Moreover, the values for the Activity in series [7] and in [2] were 2 µM and 0.8 µM, respectively. Moreover, the MNTC in series [3] was 2500 nM. Moreover, the “Selectivity Index” value in [4] turned out to be 11.
Turning to `COc1ccc2nc3cc(Cl)ccc3c(Nc3cccc(N4CCN(C)CC4)c3)c2c1`, the EC50 in series [6] was 1190 nM; in series [8], 1490 nM; in series [1], 290 nM; in series [5] it was 380 nM. In addition, the Activity worked out at 3.5 µM in series [10], 1.5 µM in [7], 1 µM in series [2] and 3 µM in series [9]. Further, in series [3], the MNTC was 4000 nM. For the same compound, in series [4], the “Selectivity Index” value turned out to be 14.
On to `COc1ccc2nc3cc(Cl)ccc3c(Nc3cccc(N4CCOCC4)c3)c2c1`, for which, in series [1], the EC50 was found to be 900 nM. The MNTC in series [3] is 3000 nM. The “Selectivity Index” value in [4] is 3.
Turning to `COc1ccc2nc3cc(Cl)ccc3c(N)c2c1`, the EC50 in series [1] was determined as 130 nM. In series [2], the Activity was determined as 0.4 µM. In addition, in [3], the MNTC came out at 4000 nM. Also, the “Selectivity Index” value in [4] was 30.
`COc1ccc2nc3cc(Cl)ccc3c(Nc3ccc(N(C)C)cc3)c2c1`: the EC50 in [1] was determined as 510 nM. Besides, the MNTC in series [3] was found to be 2000 nM. The “Selectivity Index” value in series [4] was determined as 4.
Consider `CCN(CC)c1ccc(Nc2c3ccccc3nc3ccccc23)cc1`, for which, in [1], the EC50 came out at 240 nM. Besides, the MNTC in [3] turned out to be 400 nM. Besides, the “Selectivity Index” value in series [4] worked out at 2.
Consider `COc1ccc2nc3cc(Cl)ccc3c(Nc3ccc(N4CCOCC4)cc3)c2c1`, for which the EC50 in series [1] was found to be 1280 nM. The Activity in series [2] stood at 3 µM. Also, the MNTC in series [3] was found to be 4000 nM. The “Selectivity Index” value in [4] is reported as 3.
Consider `COc1ccc2nc3cc(Cl)ccc3c(Nc3ccc(N4CCN(C)CC4)cc3)c2c1`, for which the EC50 was found to be 420 nM in series [6], 680 nM in [8], 100 nM in series [1] and 220 nM in [5]. Further, the Activity in series [10] came out at 1.5 µM; in series [7] it was 1.2 µM; in [2], 0.4 µM; in series [9], 1.5 µM. In addition, the MNTC in series [3] was 2500 nM. The “Selectivity Index” value in series [4] amounted to 25.

For the origin of these results see ChEMBL document CHEMBL1155004, “Antiprion activity of functionalized 9-aminoacridines related to quinacrine” (Bioorg Med Chem, 2008).
